Patent US20060142271A1, “Novel lapacho compounds and methods of use thereof” (priority 2002, published 2006)
Like-named read-outs stand apart in the source and are kept apart here.

Legend:
[1] = test system: HaCaT cells; assay: HaCaT keratinocyte proliferation assay (cell counting); format: cell-based, human; details: for IC50: Homo sapiens; for inhibition of HaCaT cell proliferation (in words): HaCaT cells
Procedure: Anthralin, an antipsoriatic drug, was used as a positive control. Antiproliferative activity was measured directly by counting the dispersed cells under a phase-contrast microscope.
HaCaT keratinocyte proliferation assay and LDH release were described previously in full detail (Muller et al. J. Med. Chem. 39: 3132-3138, 1996; Müller et al. J. Med. Chem. 37: 1660-1669, 1994). For the cancer cell line studies, exponentially growing cells were seeded at 1,000 cells per well in six-well plates and allowed to attach for 24 h. Compounds of the invention or β-lapachone, solubflized in DMSO, were added to the wells in micromolar concentrations. Control wells were treated with equivalent volumes of DMSO. After 4 h the supernatant was removed and fresh medium was added. Cultures were observed daily for 10-15 days and then were fixed and stained. Colonies of greater than 30 cells were scored as survivors. […]

[2] = test system: breast cancer cell line MCF7; assay: Cancer cell line colony survival assay, MCF7; format: cell-based, human; details: Homo sapiens
Procedure: (§1) HaCaT keratinocyte proliferation assay and LDH release were described previously in full detail (Muller et al. J. Med. Chem. 39: 3132-3138, 1996; Müller et al. J. Med. Chem. 37: 1660-1669, 1994). For the cancer cell line studies, exponentially growing cells were seeded at 1,000 cells per well in six-well plates and allowed to attach for 24 h. Compounds of the invention or β-lapachone, solubflized in DMSO, were added to the wells in micromolar concentrations. Control wells were treated with equivalent volumes of DMSO. After 4 h the supernatant was removed and fresh medium was added. Cultures were observed daily for 10-15 days and then were fixed and stained. Colonies of greater than 30 cells were scored as survivors.

[3] = test system: HaCaT cells; format: cell-based, human; details: for LDH (mU): human, 2 μM
Procedure: as §1
The cytotoxicity of naphthoquinones has been thought to result, at least in part, from reactive oxygen species, generated during redox cycling between the […] and reduction products (Munday, R., Free Radic. Biol. Med., 22, 689-695, 1997), which cause peroxidative damage to membrane lipids. To assess the correlation of keratinocyte growth inhibition with membrane damage, the release of lactate dehydrogenase from the treated cells was also quantitated.

[4] = test system: colon cancer cell line SW480; assay: Cancer cell line colony survival assay, SW480; format: cell-based, human; details: Homo sapiens
Procedure: as §1

[5] = test system: colon cancer cell line DLD1; assay: Cancer cell line colony survival assay, DLD1; format: cell-based, human; details: Homo sapiens
Procedure: as §1

[6] = test system: human keratinocyte cell line HaCaT; details: Müller et al., J. Nat. Prod. 62 (1999); cited from earlier work
[7] = test system: cancer cell lines and normal cells; details: Li et al., PNAS 2003; cited from earlier work
[8] = test system: normal fresh or proliferating human PBMC; details: cited from earlier work
[9] = test system: human cancer cell lines; details: wide spectrum of human cancer cell lines; read-out: antineoplastic activity against human cancer cell lines (IC50); cited from earlier work
[10] = antiproliferative activity against HaCaT cells, N = 3, read-out: AA in HaCaT Cells IC50
[11] = breast cancer cell line MCF7, 4 h exposure, colonies after 10-15 days, read-out: AA in Cancer Cell Lines IC50 (μM) MCF7
[12] = colon cancer cell line SW480, 4 h exposure, colonies after 10-15 days, read-out: AA in Cancer Cell Lines IC50 (μM) SW480
[13] = DLD-1, colon cancer cell line DLD1, 4 h exposure, colonies after 10-15 days, read-out: AA in Cancer Cell Lines IC50 (μM) DLD1
[14] = HaCaT, read-out: AA in HaCaT Cells IC50 (μM)

Row | Compound | IC50 [1, 10] [µM] | IC50 [2, 11] [µM] | LDH (mU) [3] [mU] | melting point | IC50 [4, 12] [µM] | IC50 [5, 13] [µM] | inhibition of HaCaT cell proliferation (in words) [1] | LDH release compared to vehicle control (in words) [3] | inhibition of keratinocyte growth in HaCaT model (in words) [6] | IC50 [1, 14] [µM] | IC50 ([2]; MCF7, read-out: AA in Cancer Cell Lines IC50 (μM) MCF7) [µM] | induction of apoptosis in cancer versus normal cells [7] | cytotoxic effects on normal human PBMC [8] | IC50 ([4]; SW480, read-out: AA in Cancer Cell Lines IC50 (μM) SW480) [µM] | IC50 ([5]; DLD-1, read-out: AA in Cancer Cell Lines IC50 (μM) DLD1) [µM] | IC50 [9] [µM]
1 | CC(=O)c1cc2c(s1)C(=O)c1ccccc1C2=O [Compound 63b, 2-Acetyl-naphtho[2,3-b]thiophene-4,9-dione] | 0.3 | ≤ 1 | 134 | 261 to 262 °C | 4 | 1 |  |  |  |  |  |  |  |  |  | 
2 | O=C(c1ccccc1)c1cc2cc3ccccc3cc2s1 [Compound 64a, Naphtho[2,3-b]thiophen-2-yl-phenylmethanone] | 0.3 | ≤ 1 | 122 | 164 to 165 °C | ≤ 1 | 1.5 |  |  |  |  |  |  |  |  |  | 
3 | O=C(c1ccccc1)c1cc2c(s1)C(=O)c1ccccc1C2=O [Compound 64b, 2-Benzoyl-naphtho[2,3-b]thiophene-4,9-dione] | 1.7 | ≤ 1 |  | 158 to 159 °C | 4 | 1.3 | inhibited cell proliferation at concentrations comparable to β-lapachone and the furan analogs | without significant elevation of LDH release over the vehicle control |  |  |  |  |  |  |  | 
4 | COc1ccc(C(=O)c2cc3cc4ccccc4cc3s2)cc1OC [Compound 65a, (3,4-Dimethoxyphenyl)-naphtho[2,3-b]thiophen-2-yl-methanone] | > 5 | > 32 |  | 175 to 176 °C | > 32 | > 32 |  |  |  |  |  |  |  |  |  | 
5 | COc1ccc(C(=O)c2cc3c(s2)C(=O)c2ccccc2C3=O)cc1OC [Compound 65b, 2-(3,4-Dimethoxybenzoyl)-naphtho[2,3-b]thiophene-4,9-dione] | 0.8 | ≤ 1 | 137 | 212 to 218 °C | 10 | 2.6 | inhibited cell proliferation at concentrations comparable to β-lapachone and the furan analogs | without significant elevation of LDH release over the vehicle control |  |  |  |  |  |  |  | 
6 | O=C(c1ccc(O)c(O)c1)c1cc2c(s1)C(=O)c1ccccc1C2=O [Compound 65c, 2-(3,4-Dihydroxybenzoyl)-naphtho[2,3-b]thiophene-4,9-dione] | 1.5 | 8 | 118 | 272 to 274 °C (dec.) | 20 | 11 | inhibited cell proliferation at concentrations comparable to β-lapachone and the furan analogs | without significant elevation of LDH release over the vehicle control |  |  |  |  |  |  |  | 
7 | O=C(c1ccc([N+](=O)[O-])cc1)c1cc2cc3ccccc3cc2s1 [Compound 66a, Naphtho[2,3-b]thiophen-2-yl-(4-nitrophenyl)methanone] | > 5 | > 32 |  | 251 to 252 °C | > 32 | > 32 |  |  |  |  |  |  |  |  |  | 
8 | O=C(c1ccccc1)c1cc2cc3ccccc3cc2o1 [Compound 74a, Naphtho[2,3-b]furan-2-yl-phenylmethanone] | 1.9 | ≤ 1 | 142 | 140 to 142 °C | 12 | 7.6 |  |  |  |  |  |  |  |  |  | 
9 | CC(C)=CCC1=C(O)C(=O)c2ccccc2C1=O [lapachol] |  |  |  |  |  |  |  |  | relatively inactive |  |  |  |  |  |  | 
10 | CC1(C)CCC2=C(O1)C(=O)c1ccccc1C2=O [α-lapachone, reference compound] |  |  |  |  |  |  |  |  | relatively inactive | 10 |  |  |  |  |  | 
11 | CC1(C)CCC2=C(O1)c1ccccc1C(=O)C2=O [β-lapachone, reference compound] |  |  | 329 |  |  |  | inhibited cell proliferation | significant LDH release as compared to vehicle | inhibition of keratinocyte growth comparable to the antipsoriatic drug anthralin | 0.7 | ≤ 1 | induces apoptosis only in cancer cell lines and not in normal cells | No cytotoxic effects were observed | 4 | 4 | 1 to 10
